≈ marks a conversion by molar mass, not a printed value.
Legend:
Type in all cases: functional
[1] = tested on: Escherichia coli; assay: Antibacterial activity against Escherichia coli MTCC 448 after 24 hrs by disk diffusion method
[2] = tested on: Pseudomonas aeruginosa; assay: Antibacterial activity against Pseudomonas aeruginosa MTCC 424 after 24 hrs by disk diffusion method
[3] = tested on: Klebsiella pneumoniae; assay: Antibacterial activity against Klebsiella pneumoniae MTCC 618 after 24 hrs by disk diffusion method
[4] = tested on: Staphylococcus epidermidis; assay: Antibacterial activity against Staphylococcus epidermidis MTCC 435 after 24 hrs by disk diffusion method
[5] = tested on: Vibrio sp.; assay: Antibacterial activity against Vibrio sp. after 24 hrs by disk diffusion method
[6] = tested on: Bacillus subtilis; assay: Antibacterial activity against Bacillus subtilis MTCC 441 after 24 hrs by disk diffusion method

Compound | MIC [1] [µg/mL] | MIC [2] [µg/mL] | MIC [3] [µg/mL] | MIC [4] [µg/mL] | MIC [5] [µg/mL] | MIC [6] [µg/mL]
Nc1ccc(S(=O)(=O)Nc2ncccn2)cc1 [SULFADIAZINE] | 16 (≈ 63.9 µM) | 32 (≈ 128 µM) | > 64 | 32 (≈ 128 µM) | 16 (≈ 63.9 µM) | 16 (≈ 63.9 µM)
O=S(=O)(Nc1ccc(-c2nc3n(n2)S(=O)(=O)c2ccccc2N3c2ccccc2)cc1)c1ccccc1 | 16 (≈ 30.2 µM) | 32 (≈ 60.4 µM) | 32 (≈ 60.4 µM) | 32 (≈ 60.4 µM) | 32 (≈ 60.4 µM) | 8 (≈ 15.1 µM)
Cc1ccc(S(=O)(=O)N2CCC(c3nc4n(n3)S(=O)(=O)c3ccccc3N4C)CC2)cc1 | 16 (≈ 33.8 µM) | 64 (≈ 135 µM) | 64 (≈ 135 µM) | 32 (≈ 67.6 µM) | 32 (≈ 67.6 µM) | 16 (≈ 33.8 µM)
Cc1ccc(S(=O)(=O)N2CCC(c3nc4n(n3)S(=O)(=O)c3ccccc3N4c3ccccc3)CC2)cc1 | 16 (≈ 29.9 µM) | 32 (≈ 59.7 µM) | 16 (≈ 29.9 µM) | 32 (≈ 59.7 µM) | 32 (≈ 59.7 µM) | 16 (≈ 29.9 µM)
CN1c2ccccc2S(=O)(=O)n2nc(C3CCN(S(=O)(=O)c4ccc(Cl)cc4Cl)CC3)nc21 | 16 (≈ 30.3 µM) | 64 (≈ 121 µM) | 16 (≈ 30.3 µM) | 16 (≈ 30.3 µM) | 32 (≈ 60.6 µM) | 16 (≈ 30.3 µM)
CN1c2ccccc2S(=O)(=O)n2nc(C3CCN(S(=O)(=O)c4ccccc4)CC3)nc21 | 8 (≈ 17.4 µM) | 64 (≈ 139 µM) | 32 (≈ 69.6 µM) | 32 (≈ 69.6 µM) | 32 (≈ 69.6 µM) | 16 (≈ 34.8 µM)
CC(=O)Nc1ccc(S(=O)(=O)N2CCC(c3nc4n(n3)S(=O)(=O)c3ccccc3N4C)CC2)cc1 | 8 (≈ 15.5 µM) | 32 (≈ 61.9 µM) | 32 (≈ 61.9 µM) | 32 (≈ 61.9 µM) | 16 (≈ 31 µM) | 32 (≈ 61.9 µM)
Nc1ccc(S(N)(=O)=O)cc1 [SULFANILAMIDE] | > 128 | > 512 | > 64 | > 512 | > 512 | > 128
Cc1ccc(S(=O)(=O)Nc2ccc(-c3nc4n(n3)S(=O)(=O)c3ccccc3N4c3ccccc3)cc2)cc1 | 16 (≈ 29.4 µM) | 32 (≈ 58.9 µM) | 32 (≈ 58.9 µM) | 32 (≈ 58.9 µM) | 32 (≈ 58.9 µM) | 8 (≈ 14.7 µM)
CN1c2ccccc2S(=O)(=O)n2nc(C3CCN(S(=O)(=O)c4ccc(F)cc4)CC3)nc21 | 16 (≈ 33.5 µM) | 32 (≈ 67 µM) | 16 (≈ 33.5 µM) | 32 (≈ 67 µM) | 32 (≈ 67 µM) | 32 (≈ 67 µM)
O=S(=O)(Nc1ccc(-c2nc3n(n2)S(=O)(=O)c2ccccc2N3c2ccccc2)cc1)c1ccc(Cl)cc1Cl | 16 (≈ 26.7 µM) | 16 (≈ 26.7 µM) | 32 (≈ 53.5 µM) | 32 (≈ 53.5 µM) | 32 (≈ 53.5 µM) | 16 (≈ 26.7 µM)
CC(=O)Nc1ccc(S(=O)(=O)N2CCC(c3nc4n(n3)S(=O)(=O)c3ccccc3N4c3ccccc3)CC2)cc1 | 16 (≈ 27.6 µM) | 32 (≈ 55.3 µM) | 32 (≈ 55.3 µM) | 32 (≈ 55.3 µM) | 32 (≈ 55.3 µM) | 16 (≈ 27.6 µM)
O=S(=O)(c1ccccc1)N1CCC(c2nc3n(n2)S(=O)(=O)c2ccccc2N3c2ccccc2)CC1 | 16 (≈ 30.7 µM) | 16 (≈ 30.7 µM) | 32 (≈ 61.3 µM) | 32 (≈ 61.3 µM) | 32 (≈ 61.3 µM) | 16 (≈ 30.7 µM)
CC(=O)Nc1ccc(S(=O)(=O)Nc2ccc(-c3nc4n(n3)S(=O)(=O)c3ccccc3N4C)cc2)cc1 | 16 (≈ 30.5 µM) | 32 (≈ 61 µM) | 32 (≈ 61 µM) | 32 (≈ 61 µM) | 32 (≈ 61 µM) | 16 (≈ 30.5 µM)
O=S(=O)(Nc1ccc(-c2nc3n(n2)S(=O)(=O)c2ccccc2N3c2ccccc2)cc1)c1ccc(F)cc1 | 16 (≈ 29.2 µM) | 32 (≈ 58.4 µM) | 64 (≈ 117 µM) | 16 (≈ 29.2 µM) | 32 (≈ 58.4 µM) | 16 (≈ 29.2 µM)
O=S(=O)(c1ccc(Cl)cc1Cl)N1CCC(c2nc3n(n2)S(=O)(=O)c2ccccc2N3c2ccccc2)CC1 | 16 (≈ 27.1 µM) | 32 (≈ 54.2 µM) | 32 (≈ 54.2 µM) | 32 (≈ 54.2 µM) | 16 (≈ 27.1 µM) | 16 (≈ 27.1 µM)
CC(=O)Nc1ccc(S(=O)(=O)Nc2ccc(-c3nc4n(n3)S(=O)(=O)c3ccccc3N4c3ccccc3)cc2)cc1 | 8 (≈ 13.6 µM) | 32 (≈ 54.5 µM) | 16 (≈ 27.3 µM) | 32 (≈ 54.5 µM) | 32 (≈ 54.5 µM) | 8 (≈ 13.6 µM)
O=S(=O)(c1ccc(F)cc1)N1CCC(c2nc3n(n2)S(=O)(=O)c2ccccc2N3c2ccccc2)CC1 | 16 (≈ 29.7 µM) | 32 (≈ 59.3 µM) | 32 (≈ 59.3 µM) | 32 (≈ 59.3 µM) | 16 (≈ 29.7 µM) | 16 (≈ 29.7 µM)

Reference: ChEMBL document CHEMBL1139793, “Synthesis, structure analysis, and antibacterial activity of some novel 10-substituted 2-(4-piperidyl/phenyl)-5,5-dioxo[1,2,4]triazolo[1,5-b][1,2,4]benzothiadiazine derivatives” (2007)
